Measurements reported in patent US6441011B1, “Combined preparation consisting of 2-methylthiazolidine-2,4-dicarboxylic acid and paracetamol” (priority 1997, dated 2002).
Marks after values point to notes of the source that are not given here.

Assays:
mice [1] = assay: Paracetamol liver damage and pre-treatment with CP: indicator substances in hepatic tissue and blood; assay type: in vivo; conditions: for Cysteine / Cystine / Glycogen / Non-protein SH / Oxygen radicals / Protein SH / Total SH / AlAT / AspAT: CP 1.2 mmol/kg pre-treatment, 12 h later paracetamol 600 mg/kg i.p. or control solution; for Cysteine / Cystine / Glycogen / Non-protein SH / Oxygen radicals / Protein SH / Total SH: tissue after another 3 h; for AlAT / AspAT: blood serum, blood after another 3 h; for concentration of oxygen radicals / concentration of sulfhydryl groups / free cysteines in the hepatic tissue / glycogen in the hepatic tissue / enzymes in the blood serum released from the liver (AlAT, AspT): paracetamol 600 mg/kg single dose, CP pre-treatment 1.2 mmol/kg; for enzymes in the blood serum released from the liver (AlAT, AspT): within 3 hours
Protocol: (§1) The mice were pre-treated using 1.2 mmol CP/kg, and 12 hours later they were treated with the control solution or 600 mg of paracetamol/kg of body weight i.p. Hepatic tissue and blood were extracted after another 3 hours, and the indicator substances were measured.

Hep G2 cells = assay: Cytotoxicity of paracetamol and protective action of CP on permanent hepatic cell line; assay type: cell-based
Protocol: The cells were kept for 10 days in a medium that contained paracetamol (1 mM). […] The concentrations of the indicator substances were measured at the end of the period of exposure (Table 3). […] It is therefore recommended to choose higher AA concentrations for later experiments.

mice [2] = assay: Time-dosage dependency: GSH in hepatic tissue after CP injection; assay type: in vivo; conditions: for GSH % of control / GSH: mice
mice [3] = assay: Toxic effects of CP under in-vivo conditions; conditions: up to a dose of 2.4 mmol CP/kg of body weight
Protocol: as §1

[4] = Hep G2 cells, 10 days, AA 1 mM, CP 2 mM
[5] = Hep G2 cells, 10 days, AA 1 mM, simultaneous CP 2 mM
[6] = CP 1.2 mmol/kg, 8 h after injection
[7] = CP 2.4 mmol/kg, 4 h after injection

Structure (SMILES) | Cysteine (mice [1]) | Cystine (mice [1]) | Glycogen (mice [1]) | Non-protein SH (mice [1]) | Oxygen radicals (mice [1]) | Protein SH (mice [1]) | Total SH (mice [1]) | AlAT (mice [1]) | AspAT (mice [1]) | concentration of oxygen radicals (mice [1]) | concentration of sulfhydryl groups (mice [1]) | free cysteines in the hepatic tissue (mice [1]) | glycogen in the hepatic tissue (mice [1]) | enzymes in the blood serum released from the liver (AlAT, AspT) (mice [1]) | L-cysteine and cystine concentrations (Hep G2 cells; [5]) | free radicals (Hep G2 cells; [5]) | also measured
CC(=O)Nc1ccc(O)cc1 [Paracetamol, paracetamol] | 0.062^a ± μmol/g wet weight of the liver | 0.025^a ± μmol/g wet weight of the liver | 8.45^a ± mg/g wet weight of the liver | 0.22^a ± μmol/g wet weight of the liver | 0.317^a ± μmol/g wet weight of the liver | 12.34 ± 0.20 μmol/g wet weight of the liver | 12.56^a ± μmol/g wet weight of the liver | 682 units/l | 855 units/l | increased | dropped dramatically | dropped dramatically | dropped dramatically | enormous increase | dropped slightly | increase | concentrations of the other indicator substances (Hep G2 cells; Hep G2 cells, 10 days, AA 1 mM): remained unchanged; Cysteine (Hep G2 cells; [4]): 3.68 nmol/mg Protein; Cystine (Hep G2 cells; [4]): 0.130 nmol/mg Protein; GSH (Hep G2 cells; [4]): 14.9 nmol/mg Protein; Glutamine synthetase (Hep G2 cells; [4]): 0.41 units/mg protein; LDH (Hep G2 cells; [4]): 1.88 units/mg protein; NPSH (Hep G2 cells; [4]): 18.90 nmol/mg Protein; free radicals (Hep G2 cells; [4]): 0.210 nmol/mg Protein; number of cells (Hep G2 cells; [4]): 6 × 10^8 cells; vital cells (Hep G2 cells; [4]): 94% vital
CC1(C(=O)O)NC(C(=O)O)CS1 (centres unmarked) [CP, 2-methyl-thiazolidine-2,4-dicarboxylic acid] | 0.240^a ± μmol/g wet weight of the liver | 0.020^a ± μmol/g wet weight of the liver | 12.59 ± 0.21 mg/g wet weight of the liver | 3.81^a ± μmol/g wet weight of the liver | 0.120^a ± μmol/g wet weight of the liver | 13.27^a ± μmol/g wet weight of the liver | 17.08^a ± μmol/g wet weight of the liver | 20 units/l | 199 units/l | significantly reduced | reduced the decrease | significantly increased | significantly increased | suppressed the increase | more than compensated | prevented | increase of glutathione concentration in the hepatic tissue (mice [2]; after 12 hours, 1.2 or 2.4 mmol/kg of body weight): could still be detected; GSH % of control (mice [2]; CP 1.2 mmol/kg, 1 h after injection): 117.5 % of control; GSH % of control (mice [2]; CP 1.2 mmol/kg, 4 h after injection): 87.2 % of control; GSH (mice [2]; [6]): 6.48 ± 0.67 μmol/g of wet weight; GSH % of control (mice [2]; [6]): 108.5 % of control; GSH % of control (mice [2]; CP 1.2 mmol/kg, 12 h after injection): 122.0 % of control; GSH % of control (mice [2]; CP 2.4 mmol/kg, 1 h after injection): 127.6 % of control; GSH (mice [2]; [7]): 5.76 ± 0.42 μmol/g of wet weight; GSH % of control (mice [2]; [7]): 90.3 % of control; GSH % of control (mice [2]; CP 2.4 mmol/kg, 8 h after injection): 112.0 % of control; GSH % of control (mice [2]; CP 2.4 mmol/kg, 12 h after injection): 154.5 % of control; glutathione concentration in the hepatic tissue (mice [2]; within one hour post application of 1.2 or 2.4 mmol/kg of body weight): rose considerably; toxic effects (mice [3]): no toxic effects; effect against high concentrations of paracetamol in the hepatic cell model (Hep G2 cells; Hep G2 cell culture): protective effect
